Results from patent US20220184077A1, “ANTI-VIRAL ACTIVITY OF VPS34 INHIBITORS” (Deciphera Pharmaceuticals, LLC, priority 2020, published 2022).
pIC50: −log10 of the molar value. Where two headings read alike, the source gives them in different places.

Key:
[1] = in vitro; details: human
[2] = in vitro; type: cell-based; details: African green monkey
Description: Compound cytotoxicity (CC50) is assessed in a BSL-2 counter screen as follows: Host cells in media are added in 25 μl aliquots (4000 cells/well) to each well of assay ready plates prepared with test compounds as above. […] DMSO is maintained at a constant concentration for all wells (0.3%) as dictated by the dilution factor of stock test compound concentrations. After incubating plates at 37° C./5% CO2 and 90% humidity for 72 hours, 30 μl Cell Titer-Glo (Promega) is added to each well. Luminescence is read using a BMG PHERAstar plate reader following incubation at room temperature for 10 minutes to measure cell viability.

[3] = test system: SARS-CoV-2; experiment: microbe, parasite or virus in culture; type: cell-based; details: Severe acute respiratory syndrome coronavirus 2, A549-ACE2, 48 h; read-out: IC50 for inhibition of SARS CoV-2 mediated cell killing
[4] = test system: coronavirus USA_WA1/2020 SARS CoV-2; experiment: SARS CoV-2 CPE assay for antiviral activity (Vero E6 host cells, Cell Titer-Glo); type: cell-based; details: read-out: IC50 for inhibition of SARS CoV-2 mediated cell killing
[5] = Vero C1008, Vero E6 cells, 72 hours, 10-point dose response, high concentration 15 μM

| SMILES | CC50 [1] | CC50 at 72 h [2] | pIC50 [3] | pIC50 [4, 5] | pIC50 ([4]; Vero C1008, 72 h) |
| --- | --- | --- | --- | --- | --- |
| Cc1nccc(Nc2cc(-c3cc(-c4cccnc4C(F)(F)F)[nH]c(=O)c3)ccn2)n1 [Compound 1] | 2 µM | > 30 µM | 7.23 | 6.92 |  |
| Cc1nccc(Nc2cc(-c3cc(-c4ccccc4Cl)[nH]c(=O)c3)ccn2)n1 [Compound 2] | 0.159 µM | 0.482 µM | > 7.70 | > 7.70 |  |
| Cc1nccc(Nc2cc(-c3cc(-c4ccccc4C(F)(F)F)n(C)c(=O)c3)ccn2)n1 [Compound 3] | 1370 µM | 1960 µM | > 7.70 |  | 7.44 |
| CCS(=O)(=O)N1CCN(c2cc(-c3ccnc(Nc4ccnc(C)n4)c3)cc(=O)[nH]2)C(C(F)(F)F)C1 (stereo not shown) [Compound 4] | 0.557 µM | 2760 µM | 7.46 |  | 6.96 |
